How the values were obtained:
Type in all cases: functional, cell-based
A549 = test: Cytotoxicity against human A549 cells after 48 hrs by MTT assay; settings: A549, 48 h
SW480 = test: Cytotoxicity against human SW480 cells after 48 hrs by MTT assay; settings: SW480, 48 h
HL-60 = test: Cytotoxicity against human HL60 cells after 48 hrs by MTT assay; settings: HL-60, 48 h
SMMC-7721 = test: Cytotoxicity against human SMMC7721 cells after 48 hrs by MTT assay; settings: SMMC-7721, 48 h
MCF7 = test: Cytotoxicity against human MCF7 cells after 48 hrs by MTT assay; settings: MCF7, 48 h

| SMILES | IC50 (A549) | IC50 (SW480) | IC50 (HL-60) | IC50 (SMMC-7721) | IC50 (MCF7) |
| --- | --- | --- | --- | --- | --- |
| COc1ccc2c3c([nH]c2c1)-c1nc2ccccc2c(=O)n1CC3 | > 40 µM | > 40 µM | > 40 µM | > 40 µM | > 40 µM |
| COc1ccc2c(=O)n3c(nc2c1)-c1[nH]c2ccccc2c1CC3 | > 40 µM | > 40 µM | > 40 µM | > 40 µM | > 40 µM |
| O=C1NCCc2c1[nH]c1ccccc21 | > 40 µM | > 40 µM | > 40 µM | > 40 µM | > 40 µM |
| COc1ccc2c(c1)[nH]c1c(C(C)=O)nccc12 [ARENARINE C] | > 40 µM | > 40 µM | > 40 µM | > 40 µM | > 40 µM |
| COC(=O)c1nccc2c1[nH]c1cc(OC)ccc12 [HARMIC ACID METHYL ESTER] | > 40 µM | > 40 µM | > 40 µM | > 40 µM | > 40 µM |
| COc1ccc2c(c1)[nH]c1c(C(=O)c3c[nH]c4ccccc34)nccc12 [TRIGONOSTEMINE A] | 23.9 µM | 4.86 µM | 13.4 µM | 22.4 µM | 5.3 µM |
| COc1ccc2c(C(=O)c3nccc4c3[nH]c3cc(OC)ccc34)c[nH]c2c1 [TRIGONOSTEMINE B] | 8.67 µM | 3.55 µM | > 40 µM | 4.78 µM | 2.98 µM |
| COc1ccc2c(c1)[nH]c1c(C(=O)c3c(O)[nH]c4ccccc34)nccc12 [TRIGONOSTEMINE C] | 18.5 µM | 17.2 µM | > 40 µM | 16 µM | 16.1 µM |
| COc1ccc2c(C(=O)c3nccc4c3[nH]c3ccccc34)c(O)[nH]c2c1 [TRIGONOSTEMINE D] | > 40 µM | > 40 µM | > 40 µM | > 40 µM | 13.8 µM |
| COc1ccc2c(c1)[nH]c1c(-c3ccnc4ccccc34)nc(O)cc12 [TRIGONOSTEMINE E] | 24.3 µM | 39.1 µM | 18.8 µM | 23.5 µM | 14.4 µM |
| COc1ccc2c(-c3nc(O)cc4c3[nH]c3ccccc34)ccnc2c1 [TRIGONOSTEMINE F] | > 40 µM | > 40 µM | > 40 µM | > 40 µM | > 40 µM |
| COc1ccc2c(c1)[nH]c1c(-c3ccnc4ccccc34)nccc12 [TRIGONOSTEMONINE C] | 23.1 µM | > 40 µM | 13.4 µM | 15.5 µM | > 40 µM |
| COc1ccc2c(-c3nccc4c3[nH]c3ccccc34)ccnc2c1 [TRIGONOSTEMONINE D] | > 40 µM | > 40 µM | > 40 µM | > 40 µM | > 40 µM |
| COc1ccc2c(C3=NCCc4c3[nH]c3ccccc43)ccnc2c1 [TRIGONOSTEMONINE E] | > 40 µM | > 40 µM | > 40 µM | > 40 µM | > 40 µM |

Reference: ChEMBL document CHEMBL1955794, “β-Carboline alkaloids from the leaves of Trigonostemon lii Y.T. Chang” (Bioorg Med Chem Lett, 2012)
